Values quoted from earlier work as cited in patent US20260166121A1, “COMPOSITIONS AND METHODS FOR THE TREATMENT OF HEMORRHAGIC SHOCK” (Children's Hospital Medical Center, priority 2022, published 2026).

Key:
[1] = test system: AMPKα1 and AMPKα2 subunits; conditions: thoracic aortas; mice with sepsis; cited from earlier work
mice with sepsis = conditions: cited from earlier work

colivelin: synthetic analogue of humanin; SALLRSIPAPAGASRLLLLTGEIDLP (SEQ ID NO: 8)
activation of AMPKα1 and AMPKα2 subunits [1]: activates | organ injury in experimental septic shock (mice with sepsis; mice, Urban C, et al. 2022): protective effects | endothelial damage in mice with sepsis (mice with sepsis; thoracic aortas): ameliorating
